Test results taken from patent publication US20260335307A1, “ANTIMICROBIAL COMBINATIONS” (Helperby Therapeutics Limited, priority 2022, published 2026).

Experiments:
ESBL E. coli = test: Chequerboard assay (OD600, MIC and FIC) of 4-mer combinations against ESBL E. coli; format: cell-based; conditions: for MIC combination therapy (Y): drug in 4-mer ceftazidime, doxycycline; for MIC Monotherapy (X): drug alone; for Ratio Y:X: MIC combination / MIC monotherapy
Text: (§1) Synergy is not predictable or expected when two or more actives are used in combination. […] One of the ways to assess whether synergy has been observed is to use the “chequerboard” technique. This is a well-accepted method that leads to the generation of a value called the fractional inhibitory concentration index (FICI). Orhan et al., J. Clin. Microbiol. 2005, 43(1):140 describes the chequerboard method and analysis in the paragraph bridging pages 140-141, and explains that the FICI value is a ratio of the sum of the MIC (Minimum Inhibitory Concentration) level of each individual component alone and in the mixture.
FICI or fractional inhibitory concentration index is the sum of the FICs of each antimicrobial when used in combination. The FIC or fractional inhibitory concentration of an antimicrobial in a combination, is the MIC of the antimicrobial in the combination divided by the MIC of the same antimicrobial when used alone. Minimum inhibitory concentrations are defined in the art as the lowest concentration of an antimicrobial that will inhibit the visible growth of a microorganism after overnight incubation.
There has in fact been very little previous work in this field. […] This method is applicable for any combination with “n” antimicrobial agents.
In this method, two antibiotics were “fixed” as part of a backbone whilst the two other antibiotics were varied over a doubling concentration scale beginning at the MIC (×1) for the effective dose in monotherapy against the organism being tested. The ΣFIC was then calculated as shown below.
The ΣFIC was divided by “0.5/n” where n=number of antimicrobials in the combination to provide FIC. The inventors opted for this expression because it more closely aligns with the 2-mer synergy levels. The same FIC scale as used for 2-mers was applied: synergy is observed when FIC is <0.5. An “Additive” effect is observed when FIC is 0.5 to <1. Indifference is observed when FIC is 1 to <2. Antagonism is observed when FIC is 2 to 4.
Synergy can be expressed as “ΣFIC≤0.25×n”.
The above method was used in the Examples herein.
The antimicrobial agents were sourced from commercially available sources. They were prepared by being weighed and dissolved in water, PBS, DMSO or acidified water to a final concentration from 1-10 mg/mL. Antimicrobial solutions were diluted to 10× highest concentration used in the experiment and subsequently diluted 2x over a series not exceeding 11 serial dilutions. These left the operator with a maximum of 12 different, descending concentrations of the chosen antimicrobials.
The bacteria were obtained from Ninewells Hospital and Medical School in Dundee, Scotland. They were obtained as patient strains and characterised by Vitek 2 screening. To prepare for the Examples below, the bacteria were grown overnight in Mueller Hinton Cation adjusted broth or until confluent in media with or without supplements. The bacteria were measured for OD600 and readings of <0.25 were returned to the incubator.
All data herein was produced using the same chequerboard assay.
20 uL of antibiotic A (backbone) and 20 uL of antibiotic B (backbone), at a single dilution, were pipetted into all wells of a 96-well plate to be used.
20 uL of the lowest concentration of antibiotic C (first variable) was pipetted into column 1 of the 96-well plate. The second concentration (2-fold more concentrate) was pipetted into column 2. This process was repeated until all concentrations of antibiotic […] to be used were complete.
20 uL of the lowest concentration of antibiotic D (second variable) were pipetted into row A of the 96-well plate. The second concentration (2-fold more concentrate) was pipetted into row B. This process was repeated until all concentrations of antibiotic […] to be used were complete.
120 uL of sterile media (BHI/MHB2) was added.
20 ul of prepared bacterial culture was added.
Plates were sealed with lids and left to incubate for 16 hours, overnight.

[1] = tested on: KPC (Klebsiella pneumoniae carbapenemase) producing K. pneumoniae; test: Chequerboard assay (percentage kill from OD600, MIC and FIC) of 4-mer combination against KPC producing K. pneumoniae; format: cell-based; conditions: Example 4, backbone ceftazidime + colistin
Text: as §1
FICI or fractional inhibitory concentration index is the sum of the FICs of each antimicrobial when used in combination. […]
In this method, two antibiotics were “fixed” as part of a backbone whilst the two other antibiotics were varied over a doubling concentration scale beginning at the MIC (×1) for the effective dose in monotherapy against the organism being tested. The ΣFIC was then calculated as shown below. […]
Synergy can be expressed as “ΣFIC≤0.25×n”. […]
The bacteria were obtained from Ninewells Hospital and Medical School in Dundee, Scotland. […] The bacteria were measured for OD600 and readings of <0.25 were returned to the incubator. […]

[2] = Example 1, backbone ceftazidime + doxycycline, colistin, rifampicin
[3] = Example 2, backbone colistin + doxycycline, colistin, levofloxacin
[4] = Example 3, backbone rifampicin + doxycycline, rifampicin, levofloxacin
[5] = Example 1, backbone ceftazidime + doxycycline
[6] = Example 1, backbone colistin + ceftazidime
[7] = Example 2, backbone colistin + doxycycline
[8] = Example 3, backbone rifampicin + doxycycline

| Structure (SMILES) | MIC (ESBL E. coli; Escherichia coli, read-out: isolate resistant to ceftazidime at) | MIC combination therapy (Y) (ESBL E. coli; [2]) | MIC combination therapy (Y) (ESBL E. coli; [3]) | MIC combination therapy (Y) (ESBL E. coli; [4]) | MIC Monotherapy (X) (ESBL E. coli; [5]) | MIC Monotherapy (X) (ESBL E. coli; [6]) | MIC combination therapy (Y) (ESBL E. coli; Example 1, backbone colistin + ceftazidime, colistin, rifampicin) | MIC Monotherapy (X) (ESBL E. coli; [7]) | MIC Monotherapy (X) (ESBL E. coli; [8]) | MIC Monotherapy (X) ([1]; drug alone) | MIC combination therapy (Y) ([1]; drug in 4-mer ceftazidime, doxycycline, rifampicin, colistin) | Ratio Y:X (ESBL E. coli; [7]) | Ratio Y:X (ESBL E. coli; [8]) |
| --- | --- | --- | --- | --- | --- | --- | --- | --- | --- | --- | --- | --- | --- |
| CC(C)(O/N=C(\C(=O)N[C@@H]1C(=O)N2C(C(=O)[O-])=C(C[n+]3ccccc3)CS[C@H]12)c1csc(N)n1)C(=O)O [Ceftazidime] | ≥ 32 µg/mL | 4 µg/mL | 16 µg/mL | 16 µg/mL | – | – | – | – | – | – | – | – | – |
| C[C@H]1c2cccc(O)c2C(=O)C2=C(O)[C@]3(O)C(=O)C(C(N)=O)=C(O)[C@@H](N(C)C)[C@@H]3[C@@H](O)[C@@H]21 [Doxycycline] | – | – | – | – | 1 µg/mL | 1 µg/mL | 0.25 µg/mL | 1 µg/mL | 1 µg/mL | 1 µg/mL | 0.25 µg/mL | – | – |
| C[C@H]1COc2c(N3CCN(C)CC3)c(F)cc3c(=O)c(C(=O)O)cn1c23 [Levofloxacin] | – | – | 0.25 µg/mL | 0.25 µg/mL | – | – | – | 8 µg/mL | 8 µg/mL | – | – | 0.03125 | 0.03125 |
| CO[C@H]1/C=C/O[C@@]2(C)Oc3c(C)c(O)c4c(O)c(c(/C=N/N5CCN(C)CC5)c(O)c4c3C2=O)NC(=O)/C(C)=C\C=C\[C@H](C)[C@H](O)[C@@H](C)[C@@H](O)[C@@H](C)[C@H](OC(C)=O)[C@@H]1C [Rifampicin] | – | 0.5 µg/mL | – | – | 4 µg/mL | 4 µg/mL | – | – | 1 µg/mL | – | – | – | – |
